Assay results reported in US12295936B2, “Immunomodulating urea azalides” (Zoetis Services LLC, priority 2020, dated 2025).

Tested on: BRD pathogens, M. haemolytica and P. multocida
Assay: MIC screening panel of BRD pathogens (antibacterial / non-antibacterial)
Conditions: read-out: antibacterial / non-antibacterial (MIC for the BRD pathogens)

Row | SMILES | MIC [µg/mL]
1 | CCCN(C[C@]1(O)[C@H](C)O[C@@H](O[C@H]2[C@H](C)[C@@H](O[C@@H]3O[C@H](C)C[C@H](N(C)C(=O)Nc4ccc(F)cc4)[C@H]3O)[C@](C)(O)C[C@@H](C)CN[C@H](C)[C@@H](O)[C@](C)(O)[C@@H](CC)OC(=O)[C@@H]2C)C[C@@]1(C)OC)C(=O)Nc1ccc(F)cc1 [Example H-10, 1-((2S,3R,4S,6R)-2-(((2R,3S,4R,5R,8R,10R,11R,12S,13S,14R)-2-ethyl-13-(((2R,4R,5S,6S)-5-((3-(4-fluorophenyl)-1-propylureido)methyl)-5-hydroxy-4-methoxy-4,6-dimethyltetrahydro-2H-pyran-2-yl)oxy)-3,4,10-trihydroxy-3,5,8,10,12,14-hexamethyl-15-oxo-1-oxa-6-azacyclopentadecan-11-yl)oxy)-3-hydroxy-6-methyltetrahydro-2H-pyran-4-yl)-3-(4-fluorophenyl)-1-methylurea] | > 64
2 | CCCN(C[C@]1(O)[C@H](C)O[C@@H](O[C@H]2[C@H](C)[C@@H](O[C@@H]3O[C@H](C)C[C@H](N(C)C(=O)Nc4ccc(C(F)(F)F)cc4)[C@H]3O)[C@](C)(O)C[C@@H](C)CN[C@H](C)[C@@H](O)[C@](C)(O)[C@@H](CC)OC(=O)[C@@H]2C)C[C@@]1(C)OC)C(=O)Nc1ccc(C(F)(F)F)cc1 [Example H-12, 1-((2S,3R,4S,6R)-2-(((2R,3S,4R,5R,8R,10R,11R,12S,13S,14R)-2-ethyl-3,4,10-trihydroxy-13-(((2R,4R,5S,6S)-5-hydroxy-4-methoxy-4,6-dimethyl-5-((1-propyl-3-(4-(trifluoromethyl)phenyl)ureido)methyl)tetrahydro-2H-pyran-2-yl)oxy)-3,5,8,10,12,14-hexamethyl-15-oxo-1-oxa-6-azacyclopentadecan-11-yl)oxy)-3-hydroxy-6-methyltetrahydro-2H-pyran-4-yl)-1-methyl-3-(4-(trifluoromethyl)phenyl)urea] | > 64
3 | CCCNC[C@]1(O)[C@H](C)O[C@@H](O[C@H]2[C@H](C)[C@@H](O[C@@H]3O[C@H](C)C[C@H](N(C)C(=O)N(CC)c4ccccc4)[C@H]3O)[C@](C)(O)C[C@@H](C)CN[C@H](C)[C@@H](O)[C@](C)(O)[C@@H](CC)OC(=O)[C@@H]2C)C[C@@]1(C)OC [Example H-16, 1-ethyl-3-((2S,3R,4S,6R)-2-(((2R,3S,4R,5R,8R,10R,11R,12S,13S,14R)-2-ethyl-3,4,10-trihydroxy-13-(((2R,4R,5S,6S)-5-hydroxy-4-methoxy-4,6-dimethyl-5-((propylamino)methyl)tetrahydro-2H-pyran-2-yl)oxy)-3,5,8,10,12,14-hexamethyl-15-oxo-1-oxa-6-azacyclopentadecan-11-yl)oxy)-3-hydroxy-6-methyltetrahydro-2H-pyran-4-yl)-3-methyl-1-phenylurea] | > 64
4 | CCCNC[C@]1(O)[C@H](C)O[C@@H](O[C@H]2[C@H](C)[C@@H](O[C@@H]3O[C@H](C)C[C@H](N(C)C(=O)N(c4ccccc4)C(C)C)[C@H]3O)[C@](C)(O)C[C@@H](C)CN[C@H](C)[C@@H](O)[C@](C)(O)[C@@H](CC)OC(=O)[C@@H]2C)C[C@@]1(C)OC [Example H-17, 1-((2S,3R,4S,6R)-2-(((2R,3S,4R,5R,8R,10R,11R,12S,13S,14R)-2-ethyl-3,4,10-trihydroxy-13-(((2R,4R,5S,6S)-5-hydroxy-4-methoxy-4,6-dimethyl-5-((propylamino)methyl)tetrahydro-2H-pyran-2-yl)oxy)-3,5,8,10,12,14-hexamethyl-15-oxo-1-oxa-6-azacyclopentadecan-11-yl)oxy)-3-hydroxy-6-methyltetrahydro-2H-pyran-4-yl)-3-isopropyl-1-methyl-3-phenylurea] | > 64
5 | CC[C@H]1OC(=O)[C@H](C)[C@@H](O[C@H]2C[C@@](C)(OC)[C@](O)(CNCCS(C)(=O)=O)[C@H](C)O2)[C@H](C)[C@@H](O[C@@H]2O[C@H](C)C[C@H](N(C)C(=O)N(C)c3ccccc3)[C@H]2O)[C@](C)(O)C[C@@H](C)CN[C@H](C)[C@@H](O)[C@]1(C)O [Example H-21, 1-((2S,3R,4S,6R)-2-(((2R,3S,4R,5R,8R,10R,11R,12S,13S,14R)-2-ethyl-3,4,10-trihydroxy-13-(((2R,4R,5S,6S)-5-hydroxy-4-methoxy-4,6-dimethyl-5-(((2-(methylsulfonyl)ethyl)amino)methyl)tetrahydro-2H-pyran-2-yl)oxy)-3,5,8,10,12,14-hexamethyl-15-oxo-1-oxa-6-azacyclopentadecan-11-yl)oxy)-3-hydroxy-6-methyltetrahydro-2H-pyran-4-yl)-1,3-dimethyl-3-phenylurea] | > 64
6 | CC[C@H]1OC(=O)[C@H](C)[C@@H](O[C@H]2C[C@@](C)(OC)[C@](O)(CNCCC3CC3)[C@H](C)O2)[C@H](C)[C@@H](O[C@@H]2O[C@H](C)C[C@H](N(C)C(=O)N(C)c3ccccc3)[C@H]2O)[C@](C)(O)C[C@@H](C)CN[C@H](C)[C@@H](O)[C@]1(C)O [Example H-34, 1-((2S,3R,4S,6R)-2-(((2R,3S,4R,5R,8R,10R,11R,12S,13S,14R)-13-(((2R,4R,5S,6S)-5-(((2-cyclopropylethyl)amino)methyl)-5-hydroxy-4-methoxy-4,6-dimethyltetrahydro-2H-pyran-2-yl)oxy)-2-ethyl-3,4,10-trihydroxy-3,5,8,10,12,14-hexamethyl-15-oxo-1-oxa-6-azacyclopentadecan-11-yl)oxy)-3-hydroxy-6-methyltetrahydro-2H-pyran-4-yl)-1,3-dimethyl-3-phenylurea] | > 64
7 | CC[C@H]1OC(=O)[C@H](C)[C@@H](O[C@H]2C[C@@](C)(OC)[C@](O)(CNCCCN3CCCC3=O)[C@H](C)O2)[C@H](C)[C@@H](O[C@@H]2O[C@H](C)C[C@H](N(C)C(=O)N(C)c3ccccc3)[C@H]2O)[C@](C)(O)C[C@@H](C)CN[C@H](C)[C@@H](O)[C@]1(C)O [Example H-35, 1-((2S,3R,4S,6R)-2-(((2R,3S,4R,5R,8R,10R,11R,12S,13S,14R)-2-ethyl-3,4,10-trihydroxy-13-(((2R,4R,5S,6S)-5-hydroxy-4-methoxy-4,6-dimethyl-5-(((3-(2-oxopyrrolidin-1-yl)propyl)amino)methyl)tetrahydro-2H-pyran-2-yl)oxy)-3,5,8,10,12,14-hexamethyl-15-oxo-1-oxa-6-azacyclopentadecan-11-yl)oxy)-3-hydroxy-6-methyltetrahydro-2H-pyran-4-yl)-1,3-dimethyl-3-phenylurea] | > 64
8 | CC[C@H]1OC(=O)[C@H](C)[C@@H](O[C@H]2C[C@@](C)(OC)[C@](O)(CNCC3CC3)[C@H](C)O2)[C@H](C)[C@@H](O[C@@H]2O[C@H](C)C[C@H](N(C)C(=O)N(C)c3ccccc3)[C@H]2O)[C@](C)(O)C[C@@H](C)CN[C@H](C)[C@@H](O)[C@]1(C)O [Example H-41, 1-((2S,3R,4S,6R)-2-(((2R,3S,4R,5R,8R,10R,11R,12S,13S,14R)-13-(((2R,4R,5S,6S)-5-(((cyclopropylmethyl)amino)methyl)-5-hydroxy-4-methoxy-4,6-dimethyltetrahydro-2H-pyran-2-yl)oxy)-2-ethyl-3,4,10-trihydroxy-3,5,8,10,12,14-hexamethyl-15-oxo-1-oxa-6-azacyclopentadecan-11-yl)oxy)-3-hydroxy-6-methyltetrahydro-2H-pyran-4-yl)-1,3-dimethyl-3-phenylurea] | > 64
